Patent US6770740B1, “Crosslinked DNA condesate compositions and gene delivery methods” (The Regents of the University of Michigan, priority 1999, dated 2004)
Where no end group is shown, it is not given here. The star is where a group is joined. Carboxymethyl = O=C(O)C*

Tests used:
[1] = QELS particle size and zeta potential of PEG-peptide DNA condensates and co-condensates, Example 1; format: physicochemical; conditions: charge ratio of 1.8:1 or higher; 50 μg/ml DNA in Hepes
Procedure: The particle size of peptide DNA condensates were analyzed at a DNA concentration of 50 μg/ml in Hepes by quasielastic light scattering (QELS). The particle surface change was determined by zeta potential analysis using a Brookhaven ZetaPlus™ (Brookhaven Instruments).
DNA co-condensates were prepared by add-mixing AlkCWK18 and PEG-VS-CWK18 in ratios ranging from 0 to 100 mol %, and condensing DNA at a charge ratio of 2.3:1 as described above. To establish the mol ratio of peptides bound to DNA, condensates were dialyzed in a fixed volume (0.5 ml) dialyzer for 75 h against water using a 100,000 MWCO membrane. Peptide DNA condensates in the retentate (0.5 ml) were dissociated by adding 50 μl of 5 M sodium chloride in 0.1% TFA. AlkCWK18 and PEG-VS-CWK18 were quantified by injecting 1 nmol of peptide (100 μl) onto analytical RP-HPLC eluted with 0.1% TFA and a gradient of acetonitrile (5 to 65% over 30 min) while detecting tryptophan by fluorescence (λex 280 nm, λem 350 nm). The peak integration areas were used to quantify AlkCWK18 and PEG-VS-CWK18 with reference to standard curves developed for each peptide.

[2] = QELS particle size and zeta potential of glycopeptide DNA condensates, Example 3; format: physicochemical; conditions: 0.5 nmol of peptide or glycopeptide per μg of DNA; 50 μg/mL DNA in HBM
Procedure: Glycopeptide DNA condensates were formed at a plasmid DNA concentration of 50 μg/mL in HBM (5 mM Hepes 0.27 M mannitol pH 7.4). DNA condensates were formed by combining 750 μL of plasmid DNA (100 μg/mL) with 750 μL of triantennary-CWK18 (50 nmol/mL), Man9-CWK18, or AlkCWK18 while vortexing. The particle size of glycopeptide and peptide DNA condensates were analyzed at a DNA concentration of 50 μg/mL in HBM by quasielastic light scattering (QELS) (Cohen et al., 1990). The particle surface charge was determined at 50 μg/mL in HBM by zeta potential analysis using a Brookhaven ZetaPlus™ (Brookhaven Instruments).

HepG2 cells [3] = assay: Luciferase reporter gene expression in HepG2 cells, Example 5; format: cell-based
Procedure: HepG2 cells (1.5×10^5) were plated on 6×35 mm wells and grown to 40-70% confluency in MEM supplemented with 10% FBS, penicillin and streptomycin (10,000 U/ml), sodium pyruvate (100 mM), and L-glutamine (200 mM). Transfections were performed in MEM (2 ml per 35 mm well) with 2% FBS and 80 μM chloroquine. Peptide DNA condensates (10 μg of DNA in 0.2 ml HBM) were added dropwise to triplicate wells. After a 5 h incubation at 37° C., the media was replaced with MEM supplemented with 10% FBS. After 24 h, cells were washed twice with ice-cold phosphate buffered saline (calcium and magnesium free) and then treated with 0.5 ml of ice-cold lysis buffer (25 mM Tris chloride pH 7.8, 1 mM EDTA, 8 mM magnesium chloride, 1% Triton X-100, 1 mM DTT) for 10 min. The cell lysate was scraped, transferred to 1.5 ml microcentrifuge tubes, and centrifuged for 7 min at 13,000 g at 4° C. to pellet debris.
Lysis buffer (300 μl), sodium-ATP (4 μl of a 180 mM solution, pH 7, 4° C.) and cell lysate (100 μl, 4° C.) were combined in a test tube, briefly mixed and immediately placed in the luminometer. Luciferase relative light units (RLU) were recorded on a Lumat™ LB 9501 (Berthold systems, Germany) with 10 sec integration after automatic injection of 100 μl of 0.5 mM D-luciferin (prepared fresh in lysis buffer without DTT). The RLU were converted in fmol using a standard curve generated by adding a known amount of luciferase (0.01 to 100 fmols with specific activity of 2.5 nU/fmol) to 35 mm wells containing 40-70% confluent HepG2 cells. The cells were processed as described above resulting in a standard curve with an average slope of 7.8×10^6 RLU per fmol of enzyme. Protein concentrations were measured by Bradford assay using bovine serum albumin as a standard (Bradford, 1976). The amount of luciferase recovered in each sample was normalized to milligrams of protein and reported as the mean and standard deviation obtained from triplicate transfections.
LipofectAce™ (Gibco BRL, 1:2.5 w/w dimethyl diotadecylammonium bromide and dioleoyl phosphatidylethanolamine) was used to mediate gene transfection according to the manufacturer's instructions. The ratio of DNA to LepofectAce™ was optimized for HepG2 cells. An optimal DNA/LipofectAce™ ratio was achieved by dissolving 10 μg of DNA in 100 μl serum free media (SFM) followed by adding 60 μl of LipofectAce™ prepared in 140 μl of SFM. The LipfectAce™ DNA complex was then diluted with 1.7 ml of SFM and used to transfect HepG2 cells for 5 h followed by replacing the transfecting media with media supplemented with 10% FBS. The cells were incubated for a total of 24 h, harvested and analyzed for luciferase as described above.

HepG2 cells [4] = assay: Nuclear targeted β-galactosidase (X-gal) count of transfected HepG2 cells; format: cell-based; conditions: HepG2, 48 h, NTβGal plasmid
Procedure: The number of cells transfected in vitro was examined using a plasmid encoding nuclear targeted β-galactosidase followed by X-gal (5-bromo-4-chloro-3-indolyl-β-galactopyranoside) staining. HepG2 and COS 7 cells were transfected for 5 h as described above with either AlkCWK18 DNA, peptide II DNA condensates, or plasmid DNA and then grown in fresh media for an additional 43 h. After removing media, cells were fixed for 5 min in phosphate-buffered saline (PBS, pH 7.3) containing 1.25 vol/vol % glutaraldehyde and then stained by incubation with 0.05 wt/v % X-gal, 1 mM magnesium chloride, 10 mM potassium ferricyanide, and 10 mM potassium ferrocyanide in PBS. After 4 h at 37° C., the X-gal solution was removed and the nuclear stained blue cells were counted with a light microscope under ten power magnification by averaging the number of transfectants from nine fields. Values were analyzed for significance by one-way analysis of variance.

Substance: Alk-S-Cys-Trp-Lys18 (C(Carboxymethyl)WKKKKKKKKKKKKKKKKKK) [AlkCWK18]
- mean diameter of DNA condensates [1]: 60 nm
- mean particle size of DNA condensates [2]: 81 nm

Substance: Cys-Trp-Lys17-Cys (CWKKKKKKKKKKKKKKKKKC) [Peptide II]
- chloroquine enhancement of gene expression relative to that of AlkCWK18 DNA condensates (HepG2 cells [3]): approximately 5 fold
- increase in gene expression over polylysine1007 or LipofectAce (HepG2 cells [3]; HepG2): 5 fold
- increase in luciferase gene expression relative to AlkCWK18 DNA condensates (HepG2 cells [3]; HepG2, 80 μM chloroquine, 24 h): 60 fold
- more cells transduced (nuclear stained) vs. AlkCWK18 (HepG2 cells [4]): approximately 9 fold
